Data published in publication PMC12969314 (European journal of medicinal chemistry, 2022).

Key:
[1] = target: T1, D4 receptor (Homo sapiens, UniProt P21917); format: binding; conditions: for selectivity against the dopamine receptor family: σ1 over D1-5
T1 sequence (P21917 1-419): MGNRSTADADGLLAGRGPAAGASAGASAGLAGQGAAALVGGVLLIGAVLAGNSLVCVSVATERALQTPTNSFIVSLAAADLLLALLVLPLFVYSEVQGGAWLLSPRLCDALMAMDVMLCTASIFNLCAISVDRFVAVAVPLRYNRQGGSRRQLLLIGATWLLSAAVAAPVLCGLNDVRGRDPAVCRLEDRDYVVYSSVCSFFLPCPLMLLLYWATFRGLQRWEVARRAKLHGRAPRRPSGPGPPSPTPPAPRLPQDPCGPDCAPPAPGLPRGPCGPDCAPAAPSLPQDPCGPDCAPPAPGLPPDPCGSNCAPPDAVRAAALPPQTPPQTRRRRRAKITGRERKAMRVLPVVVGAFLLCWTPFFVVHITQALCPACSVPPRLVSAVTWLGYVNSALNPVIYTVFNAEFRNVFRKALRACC

[2] = Mouse liver microsomal intrinsic clearance; format: in vitro ADME; conditions: for CLint scaled: liver microsomes; for Predicted hepatic clearance mCLHEP: well-stirred organ CL model, binding terms excluded
[3] = Human liver microsomal intrinsic clearance; format: in vitro ADME; conditions: for CLint scaled / Predicted hepatic clearance hCLHEP: human; for CLint scaled: liver microsomes, Intrinsic clearance hCLINT; for Predicted hepatic clearance hCLHEP: well-stirred organ CL model, binding terms excluded
[4] = Mouse plasma protein binding, equilibrium dialysis; format: in vitro ADME
[5] = target: σ2 receptor (Homo sapiens, UniProt Q5BJF2); assay: σ2 receptor radioligand binding, [3H]DTG, HEK293 membranes; conditions: ratio, σ1 over σ2
Chain of σ2 receptor (Q5BJF2 whole entry, species assumed): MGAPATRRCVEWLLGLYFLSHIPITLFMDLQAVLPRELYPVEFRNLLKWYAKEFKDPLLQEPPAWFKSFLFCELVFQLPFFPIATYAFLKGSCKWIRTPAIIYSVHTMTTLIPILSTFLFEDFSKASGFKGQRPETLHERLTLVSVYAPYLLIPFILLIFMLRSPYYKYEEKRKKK

[6] = target: DAT (Homo sapiens, UniProt Q01959); assay: PDSP panel binding, DAT; conditions: for selectivity versus DAT: σ1 over DAT
Chain of DAT (Q01959 whole entry, species assumed): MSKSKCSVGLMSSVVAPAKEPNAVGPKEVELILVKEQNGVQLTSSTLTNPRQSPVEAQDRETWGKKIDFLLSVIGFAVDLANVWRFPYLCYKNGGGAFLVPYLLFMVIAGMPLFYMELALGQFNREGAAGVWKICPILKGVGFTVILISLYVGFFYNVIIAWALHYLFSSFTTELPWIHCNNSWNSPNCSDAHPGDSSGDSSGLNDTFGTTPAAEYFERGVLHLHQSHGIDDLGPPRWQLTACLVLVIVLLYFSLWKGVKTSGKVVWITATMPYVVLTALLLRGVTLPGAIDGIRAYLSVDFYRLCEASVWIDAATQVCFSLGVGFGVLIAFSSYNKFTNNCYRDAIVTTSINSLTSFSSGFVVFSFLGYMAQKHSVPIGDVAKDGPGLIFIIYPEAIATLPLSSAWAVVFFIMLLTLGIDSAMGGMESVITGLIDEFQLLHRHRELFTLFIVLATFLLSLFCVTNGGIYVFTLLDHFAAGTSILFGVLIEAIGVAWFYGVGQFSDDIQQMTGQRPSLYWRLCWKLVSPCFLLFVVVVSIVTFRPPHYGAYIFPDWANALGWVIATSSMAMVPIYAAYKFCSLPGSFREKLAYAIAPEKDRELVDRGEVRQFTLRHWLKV

Compound	CLint scaled [2] [mL/min/kg]	Predicted hepatic clearance mCLHEP [2] [mL/min/kg]	CLint scaled ([3]; human liver microsomes) [mL/min/kg]	Predicted hepatic clearance hCLHEP [3] [mL/min/kg]	other results
c1ccc(OC[C@@H]2CN(Cc3ccc4[nH]ccc4c3)CCO2)cc1 [Compound 4]					selectivity for D4 versus σ1 ([1]; D4 over σ1): ~ 13 fold
Cn1cnc2cc(CN3CCC(OCc4ccc(Cl)c(F)c4)CC3)ccc21 [Compound 11b, 5-((4-((4-chloro-3-fluorobenzyl)oxy)piperidin-1-yl)methyl)-1-methyl-1H-benzo[d]imidazole]	< 20	<16	< 20	<10	
Fc1cc(COC2CCN(Cc3ccc4[nH]ncc4c3)CC2)ccc1Cl [Compound 12b, 5-((4-((4-chloro-3-fluorobenzyl)oxy)piperidin-1-yl)methyl)-1H-indazole]	72	40.0	< 30	11.5	Intrinsic clearance hCLINT ([3]; human liver microsomes): 26.8 mL/min/kg
Cn1ncc2cc(CN3CCC(OCc4ccc(F)c(F)c4)CC3)ccc21 [Compound 13a, 5-((4-((3,4-difluorobenzyl)oxy)piperidin-1-yl)methyl)-1-methyl-1H-indazole]		48.2		12.5	
Cn1ncc2cc(CN3CCC(OCc4ccc(Cl)c(F)c4)CC3)ccc21 [Compound 13b, 5-((4-((4-chloro-3-fluorobenzyl)oxy)piperidin-1-yl)methyl)-1-methyl-1H-indazole]		43.8		13.7	
Cn1ncc2cc(CN3CCC(OCc4cccc(C(F)(F)F)c4)CC3)ccc21 [Compound 13c, 1-Methyl-5-((4-((3-(trifluoromethyl)benzyl)oxy)piperidin-1-yl)methyl)-1H-indazole]		43.8		15.3	
Cc1ccccc1CO[C@H]1CCCN(Cc2ccc3c(cnn3C)c2)C1 [Compound 13g, (S)-1-methyl-5-((3-((2-methylbenzyl)oxy)piperidin-1-yl)methyl)-1H-indazole]	545	77.3	334	19.0	
Fc1ccc(COC2CCN(Cc3cc4ccc(Cl)cc4[nH]3)CC2)cc1F [Compound 14a, 6-chloro-2-((4-((3,4-difluorobenzyl)oxy)piperidin-1-yl)methyl)-1H-indole]		43.3	< 30	10.8	
Cc1nc(CN2CCC(OCc3ccc(Cl)c(F)c3)CC2)c2ccccn12 [Compound 16b, 1-((4-((4-chloro-3-fluorobenzyl)oxy)piperidin-1-yl)methyl)-3-methylimidazo[1,5-a]pyridine]	199	62.0	130	17.4	
Fc1ccc(COC2CCN(Cc3cn4ccccc4n3)CC2)cc1F [Compound 17a, 2-((4-((3,4-difluorobenzyl)oxy)piperidin-1-yl)methyl)imidazo[1,2-a]pyridine]		57.4		<10	
Fc1cc(COC2CCN(Cc3cn4ccccc4n3)CC2)ccc1Cl [Compound 17b, 2-((4-((4-chloro-3-fluorobenzyl)oxy)piperidin-1-yl)methyl)imidazo[1,2-a]pyridine]		46.7		13.8	
FC(F)(F)c1cccc(COC2CCN(Cc3cn4ccccc4n3)CC2)c1 [Compound 17c, 2-((4-((3-(trifluoromethyl)benzyl)oxy)piperidin-1-yl)methyl)imidazo[1,2-a]pyridine]	150	56.3	69.3	15.6	
c1cncc(COC2CCN(Cc3cn4ccccc4n3)CC2)c1 [Compound 17e, 2-((4-(pyridin-3-ylmethoxy)piperidin-1-yl)methyl)imidazo [1,2-a]pyridine]					Ki [1]: 2.29 µM
Fc1ccc(OC[C@@H]2CN(Cc3cn4ccccc4n3)CCO2)cc1F [Compound 17k, (S)-2-((3,4-difluorophenoxy)methyl)-4-(imidazo[1,2-a]pyridin-2-ylmethyl)morpholine]	321	70.3	42.1	13.6	
Cc1c(Cl)cccc1NC(=O)CN1CCC(OCc2ccc(F)c(F)c2)CC1 [Compound 18a, N-(3-chloro-2-methylphenyl)-2-(4-((3,4-difluorobenzyl)oxy)piperidin-1-yl)acetamide]		68.6		17.6	
Cc1cc(NC(=O)CN2CCC(OCc3ccc(F)c(F)c3)CC2)ccc1F [Compound 18d, 2-(4-((3,4-difluorobenzyl)oxy)piperidin-1-yl)-N-(4-fluoro-3-methylphenyl)acetamide]		69.6		14.3	Stability in mouse plasma (mPPB column) [4]: c; selectivity σ1:σ2 [5]: ~ 1.4
COc1ccc(CN2CCC[C@H](OCc3ccc(F)c(C)c3)C2)cc1F [Compound 19a, (S)-3-((4-fluoro-3-methylbenzyl)oxy)-1-(3-fluoro-4-methoxybenzyl)piperidine]	> 2400	86.8	964	19.7	
COc1ccc(CN2CCC[C@H](OCc3ccc(C)cc3)C2)cc1F [Compound 19e, (S)-1-(3-fluoro-4-methoxybenzyl)-3-((4-methylbenzyl)oxy)piperidine]	1190	83.7	1130	19.7	
Cc1ccc(CO[C@H]2CCCN(Cc3ccc(C#N)cc3)C2)cc1 [Compound 19f, (S)-4-((3-((4-methylbenzyl)oxy)piperidin-1-yl)methyl) benzonitrile]	485	76.0	842	19.6	selectivity versus DAT [6]: 300; selectivity against the dopamine receptor family [1]: > 74 fold
Cc1ccc(CO[C@H]2CCCN(Cc3cccc(F)c3)C2)cc1 [Compound 19g, (S)-1-(3-fluorobenzyl)-3-((4-methylbenzyl)oxy)piperidine]	> 2400	86.8	1400	19.8	Ki [6]: 8.81 µM; selectivity versus DAT [6]: 473; Ki [1]: > 10 µM; selectivity against the dopamine receptor family [1]: > 74 fold; selectivity σ1:σ2 [5]: 31
Cc1c(Cl)cccc1NC(=O)CN1CCC2(CCCN2Cc2ccc(F)c(F)c2)CC1 [Compound 24a, N-(3-chloro-2-methylphenyl)-2-(1-(3,4-difluorobenzyl)-1,8-diazaspiro[4.5]decan-8-yl)acetamide]					Ki [1]: > 10 µM
Cc1cc(NC(=O)CN2CCC3(CCCN3Cc3ccc(F)c(F)c3)C2)ccc1F (stereo not drawn) [Compound 24e, 2-(1-(3,4-difluorobenzyl)-1,7-diazaspiro[4.4]nonan-7-yl)-N-(4-fluoro-3-methylphenyl)acetamide]					Ki [1]: > 10 µM
Cc1cc(NC(=O)CN2CCC3(CCCN(Cc4ccc(F)c(F)c4)C3)C2)ccc1F (stereo not drawn) [Compound 24f, 2-(7-(3,4-difluorobenzyl)-2,7-diazaspiro[4.5]decan-2-yl)-N-(4-fluoro-3-methylphenyl)acetamide]	855	81.5	602	19.5	Ki [1]: > 10 µM; Stability in mouse plasma (mPPB column) [4]: c
Fc1ccc(CN2CCCC3(CCN(Cc4cc5ccc(Cl)cc5[nH]4)C3)C2)cc1F (stereo not drawn) [Compound 25c, 2-((6-chloro-1H-indol-2-yl)methyl)-7-(3,4-difluorobenzyl)-2,7-diazaspiro[4.5]decane]					Ki [1]: > 10 µM
